According to paper PMC5326599 (Antiviral research, 2017):
“And” between values parts separate entries of the source, which are not always exact repeats. Equal entries are not always repeated. Where two headings read alike, the source gives them in different places. Marks after values point to notes of the source that are not given here.

Tests used:
[1] = tested on: A/WSN/33 (M2-N31S + V27A) (H1N1) virus; assay type: cell-based, influenza A virus
[2] = tested on: influenza A/WSN/33 (M2-N31S + V27A) (H1N1) virus; parameters: species or system BALB/c mice; details: mouse, in vivo
M2-S31N channel = M2-S31N channel (Influenza A virus, UniProt P0DOF5, S31N); assay type: biochemical
[3] = tested on: A/Solomon Islands/3/2006 (H1N1) virus; assay: microbe, parasite or virus in culture; assay type: cell-based; details: read-out: EC50, A/Solomon Islands/3/2006 (H1N1)
[4] = tested on: A/WSN/33 (M2-N31S) (H1N1) virus; assay type: cell-based, influenza A virus; details: read-out: EC50, A/WSN/33 (M2-N31S) (H1N1)
[5] = tested on: A/Udorn/72 (H3N2) virus (M2-WT); assay: microbe, parasite or virus in culture; assay type: cell-based, influenza A virus
[6] = molecular target: A/Udorn/72 (M2-V27A) proton channel (Influenza A virus, UniProt P0DOF5, V27A); assay type: biochemical

Row | SMILES | EC50 ([1]; read-out: Antiviral Efficacy EC50, A/WSN/33 (M2-N31S + V27A) (H1N1) M2-V27A) | MDD ± SD (mean day of death) [2] | Mean Lung Parameters ± SD (Day 6): Virus Titer [2] | Mean Lung Parameters ± SD (Day 6): Weight [2] | Survivors/Total [2] | protection / effectiveness (in words) [2] | channel inhibition at 100 μM, M2-S31N (M2-S31N channel) | EC50 [3] | EC50 [4] | EC50 ([5]; read-out: antiviral EC50 at passage 1) | EC50 ([5]; read-out: antiviral EC50 at passage 2) | channel conductance current at the second activation event, % of the maximum current [6] | Mean Lung Parameters ± SD (Day 6): Hemorrhage Score [2] | protection from death [2] | EC50 ([3]; Influenza A virus, H1N1, MDCK) | EC50 ([5]; Influenza A virus, H3N2, read-out: antiviral EC50 at passage 1) | inhibition of plaque formation [1]
1 | NC1CCC2(CC1)C1CC3CC(C1)CC2C3 (centres unmarked) [Compound 3, spiroadamantane amine] | […] | […] | […] | […] | […] | highly protective | […] | […] | […] | […] | […] | […] | – | – | – | – | –
2 | CCOC(=O)C1=C[C@@H](OC(CC)CC)[C@H](NC(C)=O)[C@@H](N)C1 [Oseltamivir (4), Oseltamivir] | – | – | 2.5 ± 0.2 Log10 CCID50/g | 178 ± 28 mg | 10/10^*** | – | – | – | – | – | – | – | 0.0 ± 0.0 | 100% | – | – | –
3 | NC12CC3CC(CC(C3)C1)C2 [Amantadine (1), amantadine] | – | […] | […] | […] | […] | minimum effectiveness | – | – | […] | – | – | – | – | – | […] | […] | –
4 | CCC(CC)O[C@@H]1C=C(C(=O)O)C[C@H](N)[C@H]1NC(C)=O [Oseltamivir carboxylate (4), Oseltamivir carboxylate, reference compound] | – | – | – | – | – | – | – | – | – | – | – | – | – | – | – | – | complete inhibition
